Source: ChEMBL document CHEMBL1201862, “PubChem BioAssay data set” (2004)
Activity calls are given as the source filed them.

Legend:
[1] = target: Type-1 angiotensin II receptor (Homo sapiens, UniProt P30556); experiment: agonist activity at AGTR1 – cell-based, uHTS hits, selectivity assay for APJ receptor agonist project, dose response (AID 488865); assay type: functional;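 note: beta-arrestin recruitment to AT1 measured by enzyme fragment complementation luminescence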
[2] = target: T1, Cannabinoid receptor 1 (Homo sapiens, UniProt P21554); experiment: SAR analysis of agonists of the Cannabinoid Receptor 1 using an Image-Based Assay - Set 4. [Related pubchem assays (depositor defined):AID2013, AID2026]; assay type: functional
[3] = target: T2, Cannabinoid receptor 2 (Homo sapiens, UniProt P34972); experiment: SAR analysis of antagonists of the Cannabinoid Receptor 2 using an Image-Based Assay - Set 3. [Related pubchem assays (depositor defined):AID2013, AID2026]; assay type: functional
[4] = target: G-protein coupled receptor 55 (Homo sapiens, UniProt Q9Y2T6); experiment: SAR Analysis of Selective Antagonists of GPR55 using an Image-Based Assay - Set 4. [Related pubchem assays (depositor defined):AID2013, AID2026]; assay type: functional;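 note: antagonism of response to 5 µM lysophosphatidylinositol agonist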
[5] = target: T2, Cannabinoid receptor 2; experiment: SAR analysis of agonists of the Cannabinoid Receptor 2 using an Image-Based Assay - Set 3. [Related pubchem assays (depositor defined):AID2013, AID2026]; assay type: functional
[6] = target: T3, G-protein coupled receptor 35 (Homo sapiens, UniProt Q9HC97); experiment: SAR analysis of Antagonists of the GPR35 Receptor using an Image-Based Assay - Set 6. [Related pubchem assays (depositor defined):AID2013, AID2026]; assay type: functional
[7] = target: T1, Cannabinoid receptor 1; experiment: SAR analysis of antagonists of the Cannabinoid Receptor 1 using an Image-Based Assay - Set 4. [Related pubchem assays (depositor defined):AID2013, AID2026]; assay type: functional
[8] = target: T3, G-protein coupled receptor 35; experiment: SAR analysis of Agonists of the GPR35 Receptor using an Image-Based Assay - Set 4. [Related pubchem assays (depositor defined):AID2013, AID2026]; assay type: functional
[9] = Luminescence Cell-Based Dose Retest to Confirm Activators of 5'UTR Stem-Loop Driven Alpha-Synuclein mRNA Translation in H4 Neuroglioblastoma Cells. [Related pubchem assays (depositor defined):AID1813, AID1829]; assay type: functional
[10] = Luminescence Cell-Based Dose Response HTS to Identify Activators of 5'UTR Stem-Loop Driven Prion Protein mRNA Translation in H4-C Neuroglioblastoma Cells. [Related pubchem assays: 1829 (Project Summary), 1814 (Primary HTS)]; assay type: functional
[11] = Luminescence Cell-Based Dose Response HTS to Identify Activators of Luciferase Translation or Activity in H4-C Neuroglioblastoma Cells. [Related pubchem assays: 1829 (Project Summary), 1814 (Primary HTS)]; assay type: functional
[12] = luciferase reporter signal suppression in cells – H4 neuroglioma cells, luminescence, dose response (AID 1990); assay type: functional, cell-based
[13] = Luminescence Cell-Based Dose HTS Response to Identify Inhibitors of 5'UTR Stem-Loop Driven Prion Protein mRNA Translation in H4-C Neuroglioblastoma Cells. [Related pubchem assays (depositor defined):AID1814, AID1827]; assay type: functional
[14] = Luminescence Cell-Based Dose Response HTS to Identify Inhibitors of 5'UTR Stem-Loop Driven Prion Protein mRNA Translation in H4 Neuroglioblastoma Cells. [Related pubchem assays: 1827 (Project Summary), 1813 (Primary HTS)]; assay type: functional
[15] = alpha-synuclein stem-loop luciferase translation blockers – H4 neuroglioma cells, luminescence, confirmation (AID 1988); assay type: functional, cell-based
[16] = Luminescence Cell-Based Dose Confirmation HTS to Identify Inhibitors of 5'UTR Stem-Loop Driven Alpha-Synuclein mRNA Translation in H4 Neuroglioblastoma Cells. [Related pubchem assays: 1827 (Project Summary), 1813 (Primary HTS)]; assay type: functional
[17] = Luminescence Cell-Based Dose Response HTS to Identify Inhibitors of Luciferase Translation or Activity in H4-C Neuroglioblastoma Cells. [Related pubchem assays: 1813 (Primary HTS), 1827 (Project Summary)]; assay type: functional
[18] = Trypanosoma cruzi growth suppression in host cells – NIH3T3 host cells, beta-gal luminescence, confirmation (AID 2044); assay type: functional, cell-based;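 note: intracellular parasites grown in NIH/3T3 mouse fibroblasts as host cells; luminescent beta-galactosidase reporter signal from transgenic T. cruzi replicating inside host cells; inhibitors lower the luminescence signal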
[19] = target: DNA dC->dU-editing enzyme APOBEC-3G (Homo sapiens, UniProt Q9HC16); assay type: functional;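 note: Dose-response counterscreen measuring inhibition of APOBEC3G DNA deaminase activity, run while confirming APOBEC3A inhibitors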
[20] = NIH3T3 cell viability loss – ATP luminescence, mouse fibroblasts, counter-screen, dose response (AID 2010); assay type: functional, cell-based;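 note: cells exposed to compound for about 90 hours before reading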
[21] = target: DNA dC->dU-editing enzyme APOBEC-3A (Homo sapiens, UniProt P31941); experiment: Dose Response confirmation of small molecule APOBEC3A DNA Deaminase Inhibitors via a fluorescence-based single-stranded DNA deaminase assay. [Related pubchem assays (depositor defined):AID493011, AID493024]; assay type: functional
[22] = target: Dual specificity protein phosphatase 3 (Homo sapiens, UniProt P51452); experiment: SAR VHR1 Fluorescent Assay for In Vitro dose response studies Set 2. [Related pubchem assays (depositor defined):AID1654, AID1661, AID1878]; assay type: functional
[23] = target: T4, Tyrosine-protein phosphatase non-receptor type 7 (Homo sapiens, UniProt P35236); experiment: SAR analysis of chemical inhibitors of HePTP using a Fluorescent assay - Set 2. [Related pubchem assays (depositor defined):AID1059, AID1077, AID1661, AID2085, AID521]; assay type: functional
T4 sequence (P35236 whole entry): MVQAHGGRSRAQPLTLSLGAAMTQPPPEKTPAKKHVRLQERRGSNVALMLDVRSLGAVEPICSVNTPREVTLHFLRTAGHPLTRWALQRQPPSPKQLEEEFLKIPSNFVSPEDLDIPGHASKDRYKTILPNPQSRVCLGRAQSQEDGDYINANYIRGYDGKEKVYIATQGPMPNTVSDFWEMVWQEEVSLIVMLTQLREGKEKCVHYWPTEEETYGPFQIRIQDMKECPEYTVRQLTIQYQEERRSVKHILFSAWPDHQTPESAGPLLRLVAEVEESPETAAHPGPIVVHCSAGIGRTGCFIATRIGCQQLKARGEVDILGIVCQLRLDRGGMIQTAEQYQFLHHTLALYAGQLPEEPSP

[24] = target: T5, Kappa-type opioid receptor (Homo sapiens, UniProt P41145); experiment: SAR analysis of small molecule antagonists of the kappa opioid receptor via a luminescent beta-arrestin assay - Set 4. [Related pubchem assays (depositor defined):AID1777, AID1778, AID1785, AID1786, AID1966, AID2133, AID2136, AID2285]; assay type: functional
[25] = target: T5, Kappa-type opioid receptor; experiment: SAR analysis of small molecule antagonists of the kappa opioid receptor via a luminescent beta-arrestin assay - Set 5. [Related pubchem assays (depositor defined):AID1778, AID1785]; assay type: functional
[26] = blockers of HIV-1 envelope-mediated cell-cell fusion – cherry-pick, dose response (AID 652057); assay type: functional, cell-based
[27] = viability loss in CEM21 cells – cell-based, CellTiter-Glo luminescence, cherry-picked, cytotoxicity control for viral fusion inhibitor project, dose response (AID 652042); assay type: functional;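 note: potency for signal decrease meaning cytotoxicity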
[28] = DRD fibroblast viability loss – cell-based, non-viral oncogenic, luminescence, dose response (AID 1934); assay type: functional; conditions: Homo sapiens
[29] = NIH-3T3 fibroblast cytotoxicity, dose response, cytotoxicity control, cell-based, fluorescence, Alamar Blue, secondary assay (AID 2327); assay type: functional;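 note: NIH-3T3 mouse fibroblasts cultured with fluconazole at 8 µg/mL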
[30] = system: Streptococcus; experiment: GAS UMAA2166 growth inhibition – luminescence, BacTiterGlo, counter-screen for streptokinase expression inhibitor project, dose response (AID 1915); assay type: functional, organism-based;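 note: potency for reduction of bacterial viability or growth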
[31] = blockers of HIV-1 ZM109 envelope-driven cell-cell fusion – HeLa effector, CEM target cells, luciferase, cherry-pick, dose response (AID 652058); assay type: functional, cell-based;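 note: luciferase signal from HIV-1 Env mediated cell-cell fusion of effector and target cells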
[32] = system: CHO; experiment: CHO cell viability loss, potency – luminescence, cytotoxicity control for TLR9-MyD88 binding inhibitor project, dose response (AID 588339); assay type: functional, cell-based, hamster; conditions: Cricetulus griseus;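 note: CHO cells stably coexpressing TLR9 and MyD88 fusions from primary screen; compound exposure lasted 48 hours before viability readout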
[33] = target: Serine/threonine-protein phosphatase (Candida dubliniensis (strain CD36 / CBS 7987 / NCPF 3949 / NRRLY-17841) (Yeast), UniProt B9W6M3); experiment: blockers of CaCl2-induced CDRE-lacZ signaling – S. cerevisiae, luminescence, secondary, dose response (AID 2388); assay type: functional, cell-based;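 note: yeast reporter cells carrying a calcineurin-responsive lacZ construct stimulated with calcium chloride; luminescent beta-galactosidase reporter signal in whole cells rather than isolated phosphatase activity; potency for inhibition where a drop in reporter signal means calcineurin blockade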
[34] = microbe, parasite or virus in culture; assay type: functional; conditions: Mycobacterium tuberculosis
[35] = HIV-1 AD8 envelope cell-cell fusion blockers – cherry-pick, dose response (AID 652062); assay type: functional, cell-based;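 note: luciferase signal from cell-cell fusion driven by HIV-1 clade B AD8 Env; potency is for inhibitors of fusion seen as a drop in luminescence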
[36] = fluconazole-exposed Candida albicans growth modulators – fluorescence, retest, confirmation (AID 2467); assay type: functional, cell-based
[37] = target: Beta Lactamase (Pseudomonas aeruginosa, UniProt Q932Y6); experiment: BLA reporter interference, concentration series – BLA reporter cells, FRET fluorescence, artefact control for TLR9-MyD88 binding inhibitor project, dose response (AID 588341); assay type: cell-based;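 note: cell based assay in CHO-K1 cells stably expressing beta-lactamase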
[38] = alpha-synuclein stem-loop translation blockers – luminescence, H4 neuroglioblastoma cells, dose confirmation, confirmation (AID 2454); assay type: functional, cell-based;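 note: H4 neuroglioblastoma cells carrying an alpha-synuclein 5'UTR luciferase reporter; potency for inhibition of the luciferase signal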
[39] = system: INS1; experiment: INS-1E survival protection against cytokine death – cell-based, luminescence, retest, dose response (AID 449756); assay type: functional; conditions: Rattus norvegicus;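 note: cell death triggered by IL-1 beta plus TNF-alpha plus IFN-gamma mixture; protective hits raise ATP signal compared with cytokine alone wells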
[40] = target: NACHT, LRR and PYD domains-containing protein 3 (Homo sapiens, UniProt Q96P20); experiment: NALP3 inhibitors in yeast, dose response, luminescent (AID 488799); assay type: functional
[41] = system: BJ; experiment: cells; assay type: functional, cell-based; conditions: Homo sapiens
[42] = off-target signal loss in HeLa-CEM21 co-culture – HeLa F-luc CTL cells, cherry-picked, counter-screen for HIV-1 Env fusion inhibitor project, dose response (AID 652040); assay type: functional, cell-based;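 note: potency for signal decrease marking cytotoxic or nonspecific inhibition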
[43] = target: Intestinal-type alkaline phosphatase (Homo sapiens, UniProt P09923); experiment: activation of human intestinal alkaline phosphatase – biochemical, dose response (AID 488873); assay type: functional
[44] = target: Hepatocyte nuclear factor 4-alpha (Homo sapiens, UniProt P41235); assay type: functional, cell-based;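 note: biochemical luminescence-based dose-response counterscreen measuring inhibition of HNF4 dimerization, run alongside a screen for blockers of ABHD5–perilipin-5 interaction; split luciferase complementation of HNF4 fusion proteins in cell lysate measuring dimerization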
[45] = target: ATP-dependent molecular chaperone HSP82 (Candida albicans (strain WO-1) (Yeast), UniProt C4YTQ8); experiment: steroid-induced GRE reporter decrease in yeast – S. cerevisiae, luminescence, Hsp90 inhibitor project, dose response (AID 2400); assay type: functional, cell-based;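 note: beta-galactosidase luminescence from glucocorticoid response element reporter as proxy for Hsp90 function; inhibitor potency where signal loss means Hsp90 inhibition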
[46] = system: BJ; experiment: BJ-TERT fibroblast viability loss – cell-based, RAS-independent, luminescence, dose response (AID 1933); assay type: functional; conditions: Homo sapiens
[47] = luciferase reporter signal reduction – luminescence, H4-C neuroglioblastoma cells, dose response (AID 2458); assay type: functional, cell-based;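 note: H4 neuroglioblastoma cells stably carrying a luciferase reporter gene fusion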
[48] = cells; assay type: functional, cell-based
[49] = system: BJ; experiment: BJ-TERT-LT-ST fibroblast viability loss – cell-based, RAS-independent, luminescence, dose response (AID 1935); assay type: functional; conditions: Homo sapiens;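 note: BJ fibroblasts immortalized with TERT plus LT and ST oncogenes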
[50] = system: BJ; experiment: growth inhibition of engineered Ras-driven BJ cells – cell-based, alamar blue fluorescence, cherrypicked samples, dose response (AID 2631); assay type: functional; conditions: Homo sapiens;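 note: confirmatory dose-response assay in RAS-dependent BJ fibroblasts engineered with TERT, LT and ST, with cytotoxicity read by fluorescence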
[51] = target: Alkaline phosphatase, placental type (Homo sapiens, UniProt P05187); experiment: human placental alkaline phosphatase inhibition – biochemical, luminescence, confirmation (AID 1512); assay type: functional
[52] = target: Intestinal-type alkaline phosphatase (Mus musculus, UniProt P24822); experiment: mouse intestinal alkaline phosphatase activators, dose response, biochemical, luminescence, uHTS hits (AID 488783); assay type: functional
[53] = system: Streptococcus sp. 'group A'; experiment: Streptococcus pyogenes SK(-)GAS viability under kanamycin – luminescence, BacTiterGlo, confirmation, counter-screen for streptokinase expression inhibitor project, dose response (AID 1900); assay type: functional, organism-based

T1 sequence (P21554 whole entry): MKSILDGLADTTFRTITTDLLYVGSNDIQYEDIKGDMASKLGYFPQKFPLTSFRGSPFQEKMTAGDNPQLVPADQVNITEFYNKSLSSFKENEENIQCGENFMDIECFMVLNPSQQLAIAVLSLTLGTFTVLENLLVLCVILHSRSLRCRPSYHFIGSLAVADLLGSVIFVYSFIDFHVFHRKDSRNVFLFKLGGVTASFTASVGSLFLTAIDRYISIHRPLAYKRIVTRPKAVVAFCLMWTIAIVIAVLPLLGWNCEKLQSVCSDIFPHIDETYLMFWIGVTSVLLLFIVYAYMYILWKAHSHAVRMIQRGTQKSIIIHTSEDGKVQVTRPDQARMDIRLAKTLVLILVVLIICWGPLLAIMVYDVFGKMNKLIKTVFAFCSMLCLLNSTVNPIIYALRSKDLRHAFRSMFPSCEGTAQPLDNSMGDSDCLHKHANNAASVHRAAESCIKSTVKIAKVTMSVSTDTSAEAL
T5 sequence (P41145 whole entry): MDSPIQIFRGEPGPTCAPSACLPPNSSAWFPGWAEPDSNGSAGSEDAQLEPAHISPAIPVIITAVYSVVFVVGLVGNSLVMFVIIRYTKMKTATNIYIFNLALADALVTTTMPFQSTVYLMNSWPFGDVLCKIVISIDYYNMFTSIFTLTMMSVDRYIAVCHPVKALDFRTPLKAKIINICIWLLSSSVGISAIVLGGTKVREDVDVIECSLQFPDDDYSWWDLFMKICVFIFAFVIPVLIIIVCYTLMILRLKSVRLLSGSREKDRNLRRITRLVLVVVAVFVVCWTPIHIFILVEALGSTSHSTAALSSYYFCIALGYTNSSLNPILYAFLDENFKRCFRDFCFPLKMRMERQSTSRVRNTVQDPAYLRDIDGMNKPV
T2 sequence (P34972 whole entry): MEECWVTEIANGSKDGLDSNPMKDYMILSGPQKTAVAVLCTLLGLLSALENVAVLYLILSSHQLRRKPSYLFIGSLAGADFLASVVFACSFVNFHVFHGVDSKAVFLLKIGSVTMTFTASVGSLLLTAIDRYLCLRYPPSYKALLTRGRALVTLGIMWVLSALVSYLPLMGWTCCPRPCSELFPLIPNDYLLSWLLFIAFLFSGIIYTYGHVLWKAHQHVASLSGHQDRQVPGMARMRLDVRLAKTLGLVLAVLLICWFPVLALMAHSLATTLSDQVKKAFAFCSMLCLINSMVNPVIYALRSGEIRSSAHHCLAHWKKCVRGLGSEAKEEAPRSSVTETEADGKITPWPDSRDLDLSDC
T3 sequence (Q9HC97 whole entry): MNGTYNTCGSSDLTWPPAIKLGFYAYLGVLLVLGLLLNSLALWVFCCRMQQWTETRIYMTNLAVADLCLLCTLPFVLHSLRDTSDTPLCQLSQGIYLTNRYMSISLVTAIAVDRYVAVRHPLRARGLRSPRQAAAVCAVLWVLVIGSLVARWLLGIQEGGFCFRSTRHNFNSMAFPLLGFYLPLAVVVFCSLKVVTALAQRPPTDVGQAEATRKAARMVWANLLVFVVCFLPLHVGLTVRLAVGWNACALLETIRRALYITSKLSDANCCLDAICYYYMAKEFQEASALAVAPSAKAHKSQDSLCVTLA
Type-1 angiotensin II receptor, sequence (P30556 whole entry, the tested form may be a part): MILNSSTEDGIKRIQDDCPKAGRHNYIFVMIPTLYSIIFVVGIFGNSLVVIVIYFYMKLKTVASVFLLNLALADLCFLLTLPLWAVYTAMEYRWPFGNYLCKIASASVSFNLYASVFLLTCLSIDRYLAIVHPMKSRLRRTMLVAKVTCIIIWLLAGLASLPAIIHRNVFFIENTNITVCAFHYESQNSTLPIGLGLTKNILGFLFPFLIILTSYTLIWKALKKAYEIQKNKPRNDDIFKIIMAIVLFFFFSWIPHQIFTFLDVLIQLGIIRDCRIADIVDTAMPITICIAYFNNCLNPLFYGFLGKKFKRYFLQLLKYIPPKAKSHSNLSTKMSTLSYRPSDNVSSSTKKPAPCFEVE
DNA dC->dU-editing enzyme APOBEC-3A, sequence (P31941 whole entry): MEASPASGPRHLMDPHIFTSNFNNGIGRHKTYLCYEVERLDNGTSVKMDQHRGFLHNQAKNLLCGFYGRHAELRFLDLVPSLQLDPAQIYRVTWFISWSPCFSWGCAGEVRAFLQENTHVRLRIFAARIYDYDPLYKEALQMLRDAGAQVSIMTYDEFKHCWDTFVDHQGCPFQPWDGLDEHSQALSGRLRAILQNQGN
DNA dC->dU-editing enzyme APOBEC-3G, sequence (Q9HC16 whole entry): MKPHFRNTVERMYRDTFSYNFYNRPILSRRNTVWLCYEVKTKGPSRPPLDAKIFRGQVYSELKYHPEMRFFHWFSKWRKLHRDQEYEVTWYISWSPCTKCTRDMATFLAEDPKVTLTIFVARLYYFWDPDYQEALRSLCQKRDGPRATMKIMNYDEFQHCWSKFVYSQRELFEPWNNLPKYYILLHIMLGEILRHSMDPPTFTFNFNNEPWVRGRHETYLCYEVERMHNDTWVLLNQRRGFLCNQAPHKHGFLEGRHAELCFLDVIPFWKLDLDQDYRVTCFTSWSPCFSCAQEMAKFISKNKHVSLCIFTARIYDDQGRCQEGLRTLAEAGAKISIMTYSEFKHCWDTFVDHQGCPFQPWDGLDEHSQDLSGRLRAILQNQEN
Serine/threonine-protein phosphatase, sequence (B9W6M3 whole entry): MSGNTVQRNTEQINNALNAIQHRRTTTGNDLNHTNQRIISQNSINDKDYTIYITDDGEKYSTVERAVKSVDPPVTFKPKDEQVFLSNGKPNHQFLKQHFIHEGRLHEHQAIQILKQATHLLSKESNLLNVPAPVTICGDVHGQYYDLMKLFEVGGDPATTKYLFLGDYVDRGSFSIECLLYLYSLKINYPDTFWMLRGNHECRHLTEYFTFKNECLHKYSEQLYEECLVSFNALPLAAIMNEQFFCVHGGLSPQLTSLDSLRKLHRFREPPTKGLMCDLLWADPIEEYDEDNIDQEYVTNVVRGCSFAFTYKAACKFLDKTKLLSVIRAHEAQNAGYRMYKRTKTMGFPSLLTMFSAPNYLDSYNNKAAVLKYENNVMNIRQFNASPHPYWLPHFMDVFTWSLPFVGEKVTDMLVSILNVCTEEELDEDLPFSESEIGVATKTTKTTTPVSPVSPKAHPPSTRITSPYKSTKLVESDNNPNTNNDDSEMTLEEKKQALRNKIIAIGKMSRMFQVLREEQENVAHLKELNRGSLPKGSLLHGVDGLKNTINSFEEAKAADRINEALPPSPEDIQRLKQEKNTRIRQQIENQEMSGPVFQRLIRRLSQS
Intestinal-type alkaline phosphatase (Mus musculus, UniProt P24822), sequence (P24822 whole entry): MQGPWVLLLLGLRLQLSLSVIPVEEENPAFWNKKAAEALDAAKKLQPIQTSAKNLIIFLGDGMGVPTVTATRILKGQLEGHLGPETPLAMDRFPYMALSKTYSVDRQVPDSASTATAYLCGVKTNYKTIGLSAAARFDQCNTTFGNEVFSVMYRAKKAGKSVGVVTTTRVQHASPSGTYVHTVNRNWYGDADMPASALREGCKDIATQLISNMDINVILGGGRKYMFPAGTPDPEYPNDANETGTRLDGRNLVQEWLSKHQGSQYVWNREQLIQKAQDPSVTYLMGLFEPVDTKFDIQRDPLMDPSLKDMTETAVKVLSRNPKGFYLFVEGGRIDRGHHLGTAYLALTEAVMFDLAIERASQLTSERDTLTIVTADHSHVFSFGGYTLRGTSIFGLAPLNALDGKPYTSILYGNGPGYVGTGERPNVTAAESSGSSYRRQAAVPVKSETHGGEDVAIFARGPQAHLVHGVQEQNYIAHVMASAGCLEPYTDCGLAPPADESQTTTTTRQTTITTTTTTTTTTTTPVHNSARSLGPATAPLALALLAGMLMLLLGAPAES
G-protein coupled receptor 55, sequence (Q9Y2T6 whole entry): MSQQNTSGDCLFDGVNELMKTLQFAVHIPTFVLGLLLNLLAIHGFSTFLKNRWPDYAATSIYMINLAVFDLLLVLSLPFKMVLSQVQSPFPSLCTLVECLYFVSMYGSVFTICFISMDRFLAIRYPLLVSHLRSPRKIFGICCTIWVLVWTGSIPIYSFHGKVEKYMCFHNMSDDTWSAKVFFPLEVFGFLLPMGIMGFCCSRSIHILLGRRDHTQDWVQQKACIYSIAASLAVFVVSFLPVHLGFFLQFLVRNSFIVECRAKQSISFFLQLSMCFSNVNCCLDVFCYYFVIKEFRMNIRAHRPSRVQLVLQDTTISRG
ATP-dependent molecular chaperone HSP82, sequence (C4YTQ8 whole entry): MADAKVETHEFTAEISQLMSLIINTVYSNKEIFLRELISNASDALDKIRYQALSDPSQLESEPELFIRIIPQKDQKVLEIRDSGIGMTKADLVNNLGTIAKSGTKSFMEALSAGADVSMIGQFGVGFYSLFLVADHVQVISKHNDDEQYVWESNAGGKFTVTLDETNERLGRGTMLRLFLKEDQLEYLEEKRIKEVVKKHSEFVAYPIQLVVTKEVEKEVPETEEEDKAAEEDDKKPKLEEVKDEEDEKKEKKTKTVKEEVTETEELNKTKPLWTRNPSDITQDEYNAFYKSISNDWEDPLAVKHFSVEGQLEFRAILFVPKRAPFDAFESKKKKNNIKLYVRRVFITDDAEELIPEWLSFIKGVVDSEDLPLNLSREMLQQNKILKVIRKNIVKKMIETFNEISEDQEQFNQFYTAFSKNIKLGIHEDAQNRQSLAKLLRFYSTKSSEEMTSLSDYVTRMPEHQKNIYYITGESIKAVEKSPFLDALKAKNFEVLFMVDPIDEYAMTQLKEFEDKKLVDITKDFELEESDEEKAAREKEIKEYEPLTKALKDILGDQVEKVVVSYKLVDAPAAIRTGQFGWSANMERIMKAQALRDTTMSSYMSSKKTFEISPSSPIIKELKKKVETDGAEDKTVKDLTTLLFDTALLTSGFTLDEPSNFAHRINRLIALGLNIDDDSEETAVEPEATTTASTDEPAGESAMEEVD
Beta Lactamase, sequence (Q932Y6 whole entry): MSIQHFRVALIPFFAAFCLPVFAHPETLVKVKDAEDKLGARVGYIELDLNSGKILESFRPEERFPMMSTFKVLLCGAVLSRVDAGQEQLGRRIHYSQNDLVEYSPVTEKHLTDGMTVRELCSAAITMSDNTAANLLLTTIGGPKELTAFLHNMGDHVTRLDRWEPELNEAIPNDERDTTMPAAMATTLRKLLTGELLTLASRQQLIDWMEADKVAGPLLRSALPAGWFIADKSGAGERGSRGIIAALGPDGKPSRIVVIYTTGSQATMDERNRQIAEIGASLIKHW

CCN(CC)CCNC(=O)c1ccc(NC(=O)c2cc(-c3ccco3)nc3ccccc23)cc1
inactive: EC50 [1] > 100 µM

CCN(CC)S(=O)(=O)c1ccc(NC(=O)c2cc(-c3cccs3)nc3ccccc23)cc1
inactive: EC50 [2] > 32 µM | IC50 [3] > 32 µM | IC50 [4] > 32 µM | EC50 [5] > 32 µM | IC50 [6] > 32 µM | EC50 [8] > 32 µM
active: IC50 [7] 0.427 µM

COc1ccc(N(CC(=O)Nc2cc(Cl)ccc2OC)S(=O)(=O)c2c(C)noc2C)cc1
inconclusive: EC50 [9] 21.5 µM | EC50 [10] 3.56 µM | EC50 [11] 4.39 µM
> 120 µM (not active): EC50 [12]
active: EC50 [13] 3.56 µM | EC50 [14] 106 µM | EC50 [15] 5.82 µM | EC50 [16] 21.5 µM | EC50 [17] 4.39 µM

CCN1CCN(c2ccc(S(=O)(=O)N3CCCCC3)cc2NC(=O)COc2ccc(F)cc2Cl)CC1
active: EC50 [18] 0.474 µM | IC50 [19] 5.24 µM | IC50 [21] 3.24 µM
> 60 µM (not active): EC50 [20]

COc1cc(C(=S)NCc2cccc(F)c2)ccc1O
active: IC50 [22] 32.8 µM | IC50 [23] 23.4 µM

COc1ccc(CN(CCNC(=O)c2cccc(CNS(=O)(=O)c3ccc(C)cc3)c2)C(C)C)cc1
inactive: IC50 [24] > 20 µM
active: IC50 [25] 9.03 µM

CCN1/C(=C/C=C/c2oc3ccc(-c4ccccc4)cc3[n+]2CC)Oc2ccc(-c3ccccc3)cc21
inconclusive: EC50 [28] 1.04 µM | EC50 [29] 3.16 µM | EC50 [41] 1.32 µM | EC50 [46] 1.63 µM | EC50 [49] 3.42 µM
inactive: IC50 [37] 10.7 µM | IC50 [51] > 100 µM
active: AC50 [26] 1.15 µM | AC50 [27] 1.59 µM | EC50 [30] 3.89 µM | AC50 [31] 3.77 µM | IC50 [32] 1.45 µM | EC50 [33] 104 µM | CC50 [34] 1.56 µM | AC50 [35] 2.55 µM | EC50 [36] 0.976 µM | EC50 [38] 0.659 µM | AC50 [39] 0.23 µM | IC50 [40] 9.07 µM | AC50 [42] 6.77 µM | EC50 [12] < 0.1 µM | EC50 [43] 24.2 µM | IC50 [44] 3.88 µM | EC50 [45] 23.6 µM | EC50 [47] 0.696 µM | EC50 [48] 0.863 µM | EC50 [50] < 0.104 µM | EC50 [14] < 0.1 µM | EC50 [15] < 0.1 µM | EC50 [52] 22.2 µM | EC50 [53] 1.5 µM
